Our source for the pest or weed control values is patent US20220104492A1, “PYRIDAZINIUM COMPOUNDS FOR USE IN A METHOD OF CONTROLLING UNWANTED PLANT GROWTH” (SYNGENTA CROP PROTECTION AG, priority 2019, published 2022).

Structures can show the parent of a compound that is named as a salt.

Holding throughout (assay): Post-emergence efficacy (glasshouse, spray application)
What all share (assay type): in vivo

The test system of assay [1] is Amaranthus palmeri (AMAPA). The following applies: 312 h, Application rate 500 g/Ha, evaluated after 13 days, 100=total damage to plant, 0=no damage to plant, read-out: Control of weed species after post-emergence application, AMAPA. The method, then: (§1) Seeds of a variety of test species were sown in standard soil in pots. After cultivation for 14 days (post-emergence) under controlled conditions in a glasshouse (at 24/16° C., day/night; 14 hours light; 65 humidity), the plants were sprayed with an aqueous spray solution derived from the dissolution of the technical active ingredient formula (I) in a small amount of acetone and a special solvent and emulsifier mixture referred to as IF50 (11.12% Emulsogen EL360 TM+44.44% N-methylpyrrolidone+44.44% Dowanol DPM glycol ether), to create a 50 g/l solution which was then diluted to required concentration using a solution of 0.25% or 1% Empicol ESC70 (Sodium lauryl ether sulphate)+1% ammonium sulphate in water as diluent.
(§2) The test plants were then grown in a glasshouse under controlled conditions (at 24/16° C., day/night; 14 hours light; 65% humidity) and watered twice daily. After 13 days the test was evaluated (100=total damage to plant; 0=no damage to plant).
(§3) Ipomoea hederacea (IPOHE), Euphorbia heterophylla (EPHHL), Chenopodium album (CHEAL), Amaranthus palmeri (AMAPA), Lolium perenne (LOLPE), Digitaria sanguinalis (DIGSA), Eleusine indica (ELEIN), Echinochloa crus-galli (ECHCG), Setaria faberi (SETFA)

The next assay has as its system Lolium perenne (LOLPE). The following applies: 312 h, Application rate 500 g/Ha, evaluated after 13 days, 100=total damage to plant, 0=no damage to plant, read-out: Control of weed species after post-emergence application, LOLPE. The protocol:
as §1, §2, §3

The test system of assay [2] is Echinochloa crus-galli (ECHCG). The following applies: 312 h, Application rate 500 g/Ha, evaluated after 13 days, 100=total damage to plant, 0=no damage to plant, read-out: Control of weed species after post-emergence application, ECHCG. The protocol: as §1, §2, §3
The test system of assay [3] is Chenopodium album (CHEAL). The note with it: 312 h, Application rate 500 g/Ha, evaluated after 13 days, 100=total damage to plant, 0=no damage to plant, read-out: Control of weed species after post-emergence application, CHEAL. The protocol:
as §1, §2, §3

Another assay concerns Eleusine indica (ELEIN). The note with it: 312 h, Application rate 500 g/Ha, evaluated after 13 days, 100=total damage to plant, 0=no damage to plant, read-out: Control of weed species after post-emergence application, ELEIN. The method, then:
as §1, §2, §3

Assay [4] relates to Ipomoea hederacea (IPOHE). The following applies: 312 h, Application rate 500 g/Ha, evaluated after 13 days, 100=total damage to plant, 0=no damage to plant, read-out: Control of weed species after post-emergence application, IPOHE. The protocol: as §1, §2, §3
The test system of a further assay is Setaria faberi (SETFA). The following applies: 312 h, Application rate 500 g/Ha, evaluated after 13 days, 100=total damage to plant, 0=no damage to plant, read-out: Control of weed species after post-emergence application, SETFA. The protocol:
as §1, §2, §3

Assay [5] deals with Digitaria sanguinalis (DIGSA). The note with it: 312 h, Application rate 500 g/Ha, evaluated after 13 days, 100=total damage to plant, 0=no damage to plant, read-out: Control of weed species after post-emergence application, DIGSA. The method, then: as §1, §2, §3
Assay [6] has as its system Euphorbia heterophylla (EPHHL). The note with it: 312 h, Application rate 500 g/Ha, evaluated after 13 days, 100=total damage to plant, 0=no damage to plant, read-out: Control of weed species after post-emergence application, EPHHL. The protocol: as §1, §2, §3

Consider `O=C(C[n+]1ccc(-c2ncccn2)cn1)NC(Cc1ccccc1)C(=O)O` (stereo not drawn) [Compound A11], for which the pest or weed control at 500 g/ha was determined as 100% in assay [1]; 20% in the assay on Lolium perenne (LOLPE); 70% in [2]; 50% in [3]; 90% in the assay with Eleusine indica (ELEIN); 20% in assay [4]. For the same compound, the pest or weed control at 500 g/ha with Setaria faberi (SETFA) came out at 50%; in assay [5], 90%; in assay [6] it was 90%.
Consider `CC(NC(=O)C[n+]1ccc(-c2ncccn2)cn1)C(=O)O` (stereo not drawn) [Compound A12], for which the pest or weed control at 500 g/ha in [1] amounted to 100%; in the assay on Lolium perenne (LOLPE), 50%; in [2], 70%; in assay [3], 100%; with Eleusine indica (ELEIN), 100%; in [4], 70%. The pest or weed control at 500 g/ha in the assay on Setaria faberi (SETFA) turned out to be 70%; in assay [5] it was 90%; in assay [6] it was 100%.
Take `O=C(C[n+]1ccc(-c2ncccn2)cn1)NC(C(=O)O)c1ccccc1` (stereo not drawn) [Compound A13]: the pest or weed control at 500 g/ha in assay [1] turned out to be 100%; in the assay on Lolium perenne (LOLPE), 30%; in [2] it was 80%; in assay [3], 50%; in the assay on Eleusine indica (ELEIN) it was 90%; in [4], 40%. For the same compound, the pest or weed control at 500 g/ha is 70% in the assay with Setaria faberi (SETFA), 100% in assay [5] and 50% in [6].
For the compound `O=C(O)CNC(=O)CC[n+]1ccc(-c2ncccn2)cn1` [Compound A14], the pest or weed control at 500 g/ha was found to be 100% in assay [1]; 100% in the assay with Lolium perenne (LOLPE); 100% in [2]; 90% in assay [3]; 100% in the assay on Eleusine indica (ELEIN); 100% in assay [4]. The pest or weed control at 500 g/ha (with Setaria faberi (SETFA); in [5]; in [6]) was 100% in each case.
For the compound `O=C(O)CS(=O)(=O)CC[n+]1ccc(-c2ncccn2)cn1` [Compound A15], the pest or weed control at 500 g/ha stood at 70% in assay [1]; 10% in the assay with Lolium perenne (LOLPE); 20% in assay [2]; 20% in [3]; 70% in the assay with Eleusine indica (ELEIN); 10% in [4]. In addition, the pest or weed control at 500 g/ha in the assay with Setaria faberi (SETFA) was determined as 50%; in [5], 60%; in [6] it was 70%.
For `O=C(O)CSCC[n+]1ccc(-c2cccnn2)cn1` [Compound A18], the pest or weed control at 500 g/ha in [1] was 100%; in the assay on Lolium perenne (LOLPE), 70%; in [2] it was 60%; in [3] it was 90%; in the assay with Eleusine indica (ELEIN) it was 100%; in assay [4], 70%. The pest or weed control at 500 g/ha with Setaria faberi (SETFA) stood at 60%; in assay [5], 60%; in [6], 100%.
Take `CS(=O)(=O)N(CC[n+]1ccc(-c2ncccn2)cn1)CC(=O)O` [Compound A19, 2-[methylsulfonyl-[2-(4-pyrimidin-2-ylpyridazin-1-ium-1-yl)ethyl]amino]acetic acid 2,2,2-trifluoroacetate]: the pest or weed control at 500 g/ha in [1] was 100%; in the assay on Lolium perenne (LOLPE), 30%; in [2] it was 40%; in assay [3], 90%; with Eleusine indica (ELEIN), 100%; in assay [4] it was 70%. Besides, the pest or weed control at 500 g/ha was determined as 70% in the assay with Setaria faberi (SETFA), 70% in assay [5] and 80% in assay [6].
`O=C(O)CNC(=O)C[n+]1ccc(-c2ccncc2)cn1` [Compound A20]: the pest or weed control at 500 g/ha amounted to 100% in assay [1]; 30% in the assay with Lolium perenne (LOLPE); 60% in assay [2]; 90% in assay [3]; 60% in the assay with Eleusine indica (ELEIN); 70% in assay [4]. Besides, the pest or weed control at 500 g/ha in the assay on Setaria faberi (SETFA) came to 70%; in [5], 70%; in assay [6], 90%.
As to `O=S(=O)([O-])OCCOCC[n+]1ccc(-c2ncccn2)cn1` [Compound A21, 2-[2-(4-pyrimidin-2-ylpyridazin-1-ium-1-yl)ethoxy]ethyl sulfate], the pest or weed control at 500 g/ha in [1] is 100%; with Lolium perenne (LOLPE), 40%; in assay [2], 80%; in assay [3], 70%; with Eleusine indica (ELEIN), 80%; in assay [4], 40%. Further, the pest or weed control at 500 g/ha with Setaria faberi (SETFA) was 70%; in assay [5] it was 70%; in assay [6] it was 90%.
For the compound `O=C(O)CNC(=O)CC[n+]1ccc(-c2ccncn2)cn1` [Compound A23], the pest or weed control at 500 g/ha in assay [1] was 100%; with Lolium perenne (LOLPE), 40%; in assay [2] it was 60%; in [3] it was 70%; in the assay on Eleusine indica (ELEIN), 100%; in [4], 100%. The pest or weed control at 500 g/ha in the assay on Setaria faberi (SETFA) worked out at 60%; in assay [5] it was 100%; in [6], 90%.
Turning to `CN(CC(=O)O)C(=O)CC[n+]1ccc(-c2ncccn2)cn1` [Compound A24], the pest or weed control at 500 g/ha in assay [1] came out at 90%; in the assay on Lolium perenne (LOLPE), 30%; in [2] it was 40%; in [3], 90%; in the assay with Eleusine indica (ELEIN), 50%; in assay [4] it was 40%. In addition, the results for the pest or weed control at 500 g/ha (in the assay with Setaria faberi (SETFA); in [5]; in assay [6]) were 70%, 100% and 90%, respectively.
On to `CC(NC(=O)CC[n+]1ccc(-c2ncccn2)cn1)C(=O)O` (stereo not drawn) [Compound A25], for which the pest or weed control at 500 g/ha was found to be 100% in [1]; 70% in the assay on Lolium perenne (LOLPE); 90% in assay [2]; 100% in [3]; 100% in the assay on Eleusine indica (ELEIN); 40% in assay [4]. The pest or weed control at 500 g/ha in the assay with Setaria faberi (SETFA) is 90%; in assay [5], 100%; in assay [6] it was 100%.
As to `O=C(O)CNC(=O)C[n+]1ccc(-c2ccccn2)cn1` [Compound A26], the pest or weed control at 500 g/ha came out at 100% in assay [1]; 40% with Lolium perenne (LOLPE); 90% in [2]; 100% in assay [3]; 80% in the assay on Eleusine indica (ELEIN); 40% in [4]. Further, the pest or weed control at 500 g/ha was determined as 80% in the assay with Setaria faberi (SETFA), 70% in [5] and 100% in assay [6].
In the case of `O=C(O)CNC(=O)CC[n+]1ccc(-c2cccnn2)cn1` [Compound A27], the pest or weed control at 500 g/ha in assay [1] came to 100%; in the assay with Lolium perenne (LOLPE), 70%; in assay [2] it was 90%; in [3] it was 100%; in the assay on Eleusine indica (ELEIN), 60%; in assay [4], 40%. Besides, the values for the pest or weed control at 500 g/ha (in the assay on Setaria faberi (SETFA); in assay [5]; in assay [6]) were 100%, 100% and 90%, respectively.
